Source: patent US4968698A, “Nitrogen containing heterocyclic compounds” (Burroughs Wellcome Co., priority 1984, dated 1990)
Converted amounts (≈) assume the structure as drawn. Where two headings read alike, the source gives them in different places.

Experiments:
Candida albicans = assay: In vitro activity against Candida albicans (minimum inhibition concentration); format: cell-based; conditions: Yeast Nitrogen Base (YNB) broth; salt form given per compound
Protocol: The antifungal activity of the compounds of the present invention may be evaluated by determining the minimum fungistatic (inhibition) concentration (m.i.c.). This test is usually performed by preparing a series of plates or tubes containing a suitable nutrient medium, each plate or tube also containing a different concentration of the test compound and then inoculating the medium with the fungal species. After an incubation period the plates are examined visually for the presence or absence of fungal growth. The m.i.c. is the minimum concentration required to prevent fungal growth.
Minimum Inhibition Concentrations (MICs) of compounds of the present invention vs. C. albicans were determined.
The solution was filter sterilised with a 0.45 μm membrane filter unit and was then further diluted with sterile distilled water (SDW)-YNB solution: SDW (1:5).

Trichomonas vaginalis = assay: In vitro activity against T. vaginalis (IC50 determination); format: cell-based; conditions: 37° C., aerobic, Modified Diamonds Medium
Protocol: The antiprotozoal e.g. antitrichomonal, activity of the compounds of the present invention may be assessed by conventional methods, for example by determining the minimum inhibition concentration (m.i.c.) or 50% inhibition level (IC50).
Modified Diamonds Medium (MDM) was prepared according to the method described in J. Kulda et al., American Journal of Obstetrics and Gynaecology 1970, 108, 908-18 and 4 cm^3 of the medium was pipetted into each of a series of tubes (usually 16 tubes). To each tube was added 0.5 cm^3 of varying concentration of a solution (usually in ethanol+MDM) or suspension of the test drug. Duplicate tubes for each drug concentration were prepared.
Finally, to each tube was added T. vaginalis (0.5 cm^3) at a concentration of 1×10^5 cm^-3,) to give a final trichomonad concentration of 1×10^4 cm^-3 in each tube. The tubes were then incubated (aerobically) at 37° C. and the resulting trichomonad numbers were counted at 24 and 48 hours using a haemacytometer.
This information was then used to determine the 50% inhibition concentration (IC50).

[1] = 24 hr, 1×10^4 trichomonads cm^-3, read-out: IC50 24 hr
[2] = 48 hr, 1×10^4 trichomonads cm^-3, read-out: IC50 48 hr

Compound | MIC (Candida albicans) [µg/mL] | IC50 (Trichomonas vaginalis; [1]) [µg/mL] | IC50 (Trichomonas vaginalis; [2]) [µg/mL]
C(=CC1CCCCC1)C1=NCCc2cc(OCc3ccccc3)ccc21 [Example 2, 6-Benzyloxy-1-[2-cyclohexylvinyl]-3,4-dihydroisoquinoline] | 1.6 | 1 (≈ 2.89 µM) | 1.8 (≈ 5.21 µM)
N#Cc1ccc(C=CC2=NCCc3cc(OCc4ccccc4)ccc32)cc1 [Example 52, 6-Benzyloxy-1-(4-cyanostyryl)-3,4-dihydroisoquinoline] | 6.2 | 2.9 (≈ 7.96 µM) | 3.2 (≈ 8.78 µM)
CCCOc1ccc2c(c1)CCN=C2/C=C/C1CCCCC1 [Example 6, (E)-1-(2-Cyclohexylvinyl)-3,4-dihydro-6-propyloxyisoquinoline] | 25 | 0.4 (≈ 1.34 µM) | 0.4 (≈ 1.34 µM)
CCCCOc1ccc2c(c1)CCN=C2/C=C/C1CCCCC1 [Example 1, (E)-6-Butyloxy-1-(2-cyclohexylvinyl)-3,4-dihydroisoquinoline] | 1.6 | 1.3 (≈ 4.17 µM) | 1.8 (≈ 5.78 µM)
CCCCOc1ccc2c(c1)CCN=C2/C=C/c1c(F)c(F)c(F)c(F)c1F [Example 23, (E)-6-Butyloxy-1-(2-pentafluorophenyl)vinyl-3,4-dihydroisoquinoline] | 6.2 | 1.1 (≈ 2.78 µM) | 2.3 (≈ 5.82 µM)
CC(C)COc1ccc2c(c1)CCN=C2/C=C/C1CCCCC1 [Example 5, (E)-1-(2-Cyclohexylvinyl)-3,4-dihydro-6-(2-methylpropyloxy)isoquinoline] | 6.2 | 6.1 (≈ 19.6 µM) | 6.4 (≈ 20.5 µM)
Clc1ccc(C=CC2=NCCc3cc(OCc4ccccc4)ccc32)cc1 [Example 57, 6-Benzyloxy-1-(4-chlorostyryl)-3,4-dihydroisoquinoline] | 6.2 |  | 
C(/C=C/c1ccccc1)=C\C1=NCCc2cc(OCc3ccccc3)ccc21 [Example 126, (E,E)-6-Benzyloxy-3,4-dihydro-1-(4-phenylbuta-1,3-dienyl)isoquinoline] |  | 1.5 (≈ 4.1 µM) | 1.7 (≈ 4.65 µM)
CCCCOc1cc2c(cc1OCC)CCN=C2C=Cc1ccc(Cl)cc1Cl [Example 161, 7-Butyloxy-1-(2,4-dichlorostyryl)-6-ethoxy-3,4-dihydroisoquinoline] |  | 0.7 (≈ 1.67 µM) | 1.4 (≈ 3.35 µM)
Clc1ccccc1C=CC1=NCCc2cc(OCC3CCCCC3)ccc21 [Example 39, 1-(2-Chlorostyryl)-6-cyclohexylmethoxy-3,4-dihydroisoquinoline] | 1.6 |  | 
CCCCOc1cc2c(cc1OCC)C(C=Cc1ccc(Cl)cc1Cl)=NCC2 [Example 160, 6-Butyloxy-1-(2,4-dichlorostyryl)-7-ethoxy-3,4-dihydroisoquinoline] |  | 0.6 (≈ 1.43 µM) | 1 (≈ 2.39 µM)
CCCOc1cc2c(cc1OCCC)C(C=Cc1ccc(Cl)cc1Cl)=NCC2 [Example 155, 1-(2,4-Dichlorostyryl)-3,4-dihydro-6,7-dipropyloxyisoquinoline] |  | 1.2 (≈ 2.87 µM) | 2.2 (≈ 5.26 µM)
Clc1ccc(C=CC2=NCCc3c2ccc(OCc2ccccc2)c3OCc2ccccc2)cc1 [Example 172, 5,6-Bis(benzyloxy)-1-(4-chlorostyryl)-3,4-dihydroisoquinoline] |  | 0.7 (≈ 1.46 µM) | 2 (≈ 4.17 µM)

Second part, the compound after the results:

MIC (Candida albicans) [µg/mL] | IC50 (Trichomonas vaginalis; [1]) [µg/mL] | IC50 (Trichomonas vaginalis; [2]) [µg/mL] | Compound
6.2 |  |  | CCCOc1ccc2c(c1)CCN=C2C=Cc1ccc(Cl)cc1Cl [Example 31, 1-(2,4-Dichlorostyryl)-3,4-dihydro-6-propyloxyisoquinoline]
6.2 | 3.7 (≈ 12.1 µM) | 8.8 (≈ 28.8 µM) | CCCCOc1ccc2c(c1)CCN=C2C=Cc1ccccc1 [Example 3, 6-Butyloxy-3,4-dihydro-1-styrylisoquinoline]
6.2 |  |  | CC(C)CCOc1ccc2c(c1)CCN=C2C=Cc1ccc(Cl)cc1 [Example 50, 1-(4-Chlorostyryl)-3,4-dihydro-6-(3-methylbutyloxy)-isoquinoline]
3.1 |  |  | CCCCOc1ccc2c(c1)CCN=C2C=Cc1ccc(Cl)cc1 [Example 22, 6-Butyloxy-1-(4-chlorostyryl)-3,4-dihydroisoquinoline]
6.2 | 2.2 (≈ 6.51 µM) | 2.8 (≈ 8.29 µM) | C=CCCOc1ccc2c(c1)CCN=C2C=Cc1ccc(Cl)cc1 [Example 45, 6-(But-3-enyloxy)-1-(4-chlorostyryl)-3,4-dihydroisoquinoline]
1.6 |  |  | CCCCOc1ccc2c(c1)CCN=C2C=Cc1ccc(C)s1 [Example 144, 6-Butyloxy-3,4-dihydro-1-(2-(5-methyl-2-thienyl)vinyl)isoquinoline]
6.2 | 1.5 (≈ 4.54 µM) | 2.5 (≈ 7.57 µM) | CCCCOc1ccc2c(c1)CCN=C2C=Cc1ccc(C#N)cc1 [Example 13, 6-Butyloxy-3,4-dihydro-1-(4-cyanostyryl)isoquinoline]
 | 1.5 (≈ 4.15 µM) | 2.8 (≈ 7.74 µM) | CCCCOc1ccc2c(c1)CCN=C2C=Cc1ccc(C(C)(C)C)cc1 [Example 15, 6-Butyloxy-1-(4-t-butylstyryl)-3,4-dihydroisoquinoline]
 | 1 (≈ 4.36 µM) | 1.7 (≈ 7.41 µM) | CC=CC1=NCCc2cc(OCCC)ccc21 [Example 137, 3,4-Dihydro-1-prop-1-enyl-6-propyloxyisoquinoline]
25 | 1.5 (≈ 5.57 µM) | 1.6 (≈ 5.94 µM) | C/C=C/C=C/C1=NCCc2cc(OCCCC)ccc21 [Example 128, (E,E)-6-Butyloxy-3,4-dihydro-1-(penta-1,3-dienyl)isoquinoline]
25 |  |  | CCCCOc1ccc2c(c1)CCN=C2/C=C/c1ccsc1 [Example 107, (E)-6-Butyloxy-3,4-dihydro-1-(3-thienyl)vinylisoquinoline]
 | 5.5 (≈ 15 µM) | 8 (≈ 21.9 µM) | CCCCOc1ccc2c(c1)CCN=C2C=Cc1ccc(OC)cc1OC [Example 14, 6-Butyloxy-3,4-dihydro-1-(2,4-dimethoxystyryl)isoquinoline]
 | 2.9 (≈ 9.75 µM) | 3.1 (≈ 10.4 µM) | C/C=C/C=C/C1=NCCc2cc(OCCCCCC)ccc21 [Example 129, (E,E)-6-Hexyloxy-3,4-dihydro-1-(penta-1,3-dienyl)isoquinoline]
